One assay deals with FGFR1 kinase (Homo sapiens (Human), UniProt P11362). Nature of the assay: FGFR1 TR-FRET kinase assay. The conditions noted are these: for inhibition at 1 µM: 1000 nM compound; for pIC50: 13 μM ATP, read-out: IC50 of FGFR1 inhibition. The assay is classed as biochemical. The method, then: Compounds were screened in the TR-FRET assay with FGFR1 kinase. 5 ng of FGFR1 [Upstate, USA] kinase was used for assay. The compound was incubated with the kinase for 30 minutes at RT. After the incubation, substrate mix [40 nM Ultra light poly GT (Perkin Elmer, USA) and 13 μM ATP (Sigma)] was added. The above reaction was stopped by the addition of 40 mM EDTA after the […] kinase reaction. The Eu-labelled antiphospho-tyrosine antibody [Perkin Elmer, USA] was added at 0.5 nM and the fluorescence emission at 615 nm/665 nm [excitation at 340 nm] was measured. The compounds were initially screened at 100 nM and 1 μM concentrations. The compounds with >50% inhibition at 100 nM of FGFR1 were taken for the full dose response studies. The final DMSO concentration in the assay was 1%. For IC50 determination, ⅓^rd serial dilution was made from the 20 mM DMSO stock solution. 2 μl of these were transferred to the test wells containing 20 μl of the reaction mixture [total reaction volume 20 μl]. The fluorescence was measured in Perkin Elmer Wallac 1420 Multilabel Counter Victor 3. The IC50 was determined by fitting the dose response data to sigmoidal curve fitting equation using GraphPad Prism software V5.
Sequence of FGFR1 kinase (P11362 22-822): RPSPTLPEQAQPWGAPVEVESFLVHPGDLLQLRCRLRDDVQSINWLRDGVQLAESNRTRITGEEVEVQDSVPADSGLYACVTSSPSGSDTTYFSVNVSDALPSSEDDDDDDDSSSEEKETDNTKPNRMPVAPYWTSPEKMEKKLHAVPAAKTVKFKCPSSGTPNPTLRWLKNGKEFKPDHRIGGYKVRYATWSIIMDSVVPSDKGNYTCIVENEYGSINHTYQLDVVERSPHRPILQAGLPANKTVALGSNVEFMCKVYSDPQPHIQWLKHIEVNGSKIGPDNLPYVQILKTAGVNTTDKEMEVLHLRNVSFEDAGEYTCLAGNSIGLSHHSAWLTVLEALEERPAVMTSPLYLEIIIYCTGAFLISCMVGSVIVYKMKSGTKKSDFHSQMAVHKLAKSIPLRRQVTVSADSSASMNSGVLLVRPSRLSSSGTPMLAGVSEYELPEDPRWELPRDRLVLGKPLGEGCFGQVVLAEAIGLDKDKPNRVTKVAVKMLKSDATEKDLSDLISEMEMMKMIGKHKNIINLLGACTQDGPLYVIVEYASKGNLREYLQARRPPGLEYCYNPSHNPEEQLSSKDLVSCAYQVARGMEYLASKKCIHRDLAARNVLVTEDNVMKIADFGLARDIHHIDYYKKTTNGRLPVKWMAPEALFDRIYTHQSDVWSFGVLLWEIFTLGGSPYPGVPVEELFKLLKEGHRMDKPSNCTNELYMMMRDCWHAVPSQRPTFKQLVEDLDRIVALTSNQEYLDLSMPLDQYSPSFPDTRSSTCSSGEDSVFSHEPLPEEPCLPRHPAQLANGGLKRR

The next assay deals with c-Met kinase (Homo sapiens (Human), UniProt P08581). Kind of assay: c-Met TR-FRET kinase assay. The conditions noted are these: 1000 nM compound. Type of assay: biochemical. The method, then: Compounds were screened in the TR-FRET assay with c-Met kinase. 0.1 ng of c-Met [expressed in-house] kinase was used for assay. The compound was incubated with the kinase for 60 min at RT. After the incubation, substrate mix [40 nM Ultra light poly GT (Perkin Elmer, USA) and 10 μM ATP (Sigma)] was added. The above reaction was stopped by the addition of 40 mM EDTA after the 30 min kinase reaction. The Eu-labelled antiphospho-tyrosine antibody [Perkin Elmer, USA] was added at 0.5 nM and the fluorescence emission at 615 nm/665 nm [excitation at 340 nm] was measured. The compounds were initially screened at 100 nM and 1 μM concentrations. The compounds with >50% inhibition at 100 nM of c-Met were taken for the full dose response studies. The final DMSO concentration in the assay was 1%. For IC50 determination, ⅓rd serial dilution was made from the 20 mM DMSO stock solution. 2 μl of these were transferred to the test wells containing 20 μl reaction mixture [total reaction volume 20 μl]. The fluorescence was measured in Perkin Elmer Wallac 1420 Multilabel Counter Victor 3. The IC50 was determined by fitting the dose response data to sigmoidal curve fitting equation using GraphPad Prism software V5.
Sequence of c-Met kinase (P08581 25-1390): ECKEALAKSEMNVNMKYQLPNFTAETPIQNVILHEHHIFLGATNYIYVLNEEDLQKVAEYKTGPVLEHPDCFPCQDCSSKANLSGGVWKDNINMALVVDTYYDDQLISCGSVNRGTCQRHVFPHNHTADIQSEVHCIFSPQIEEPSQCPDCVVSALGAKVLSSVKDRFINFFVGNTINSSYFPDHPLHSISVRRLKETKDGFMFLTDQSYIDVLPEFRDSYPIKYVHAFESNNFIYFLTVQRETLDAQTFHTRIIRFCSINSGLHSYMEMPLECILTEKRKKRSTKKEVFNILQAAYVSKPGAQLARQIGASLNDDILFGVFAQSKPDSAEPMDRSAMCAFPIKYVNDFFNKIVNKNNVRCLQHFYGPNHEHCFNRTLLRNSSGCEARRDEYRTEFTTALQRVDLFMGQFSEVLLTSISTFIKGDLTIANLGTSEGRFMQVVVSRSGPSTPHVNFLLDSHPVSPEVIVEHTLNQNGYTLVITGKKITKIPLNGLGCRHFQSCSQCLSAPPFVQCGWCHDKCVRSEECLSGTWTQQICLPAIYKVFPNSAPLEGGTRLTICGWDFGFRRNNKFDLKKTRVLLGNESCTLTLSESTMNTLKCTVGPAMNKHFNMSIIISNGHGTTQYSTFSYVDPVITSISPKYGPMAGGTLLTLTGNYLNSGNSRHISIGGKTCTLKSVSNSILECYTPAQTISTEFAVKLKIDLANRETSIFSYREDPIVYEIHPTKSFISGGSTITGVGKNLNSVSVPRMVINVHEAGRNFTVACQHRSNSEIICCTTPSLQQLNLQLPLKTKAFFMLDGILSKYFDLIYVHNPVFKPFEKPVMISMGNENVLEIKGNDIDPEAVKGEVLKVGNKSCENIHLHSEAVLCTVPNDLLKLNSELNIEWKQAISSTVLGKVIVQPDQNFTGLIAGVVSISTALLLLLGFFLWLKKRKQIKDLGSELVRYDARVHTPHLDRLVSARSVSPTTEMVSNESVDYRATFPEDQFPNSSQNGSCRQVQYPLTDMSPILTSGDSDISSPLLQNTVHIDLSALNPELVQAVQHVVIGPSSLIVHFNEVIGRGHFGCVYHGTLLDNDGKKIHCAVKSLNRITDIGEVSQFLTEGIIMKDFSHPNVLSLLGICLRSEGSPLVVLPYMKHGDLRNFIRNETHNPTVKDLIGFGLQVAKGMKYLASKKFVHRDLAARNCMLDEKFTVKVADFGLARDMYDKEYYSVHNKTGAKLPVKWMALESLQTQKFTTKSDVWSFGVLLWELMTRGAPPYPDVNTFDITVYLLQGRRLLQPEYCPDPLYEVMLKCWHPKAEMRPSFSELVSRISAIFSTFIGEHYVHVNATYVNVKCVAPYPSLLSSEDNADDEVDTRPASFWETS
For orientation: Time-resolved FRET reads energy transfer from a long-lived donor to a nearby acceptor.

pIC50: −log10 of the molar value.

By inhibition is commonly meant the relative decrease from the control value, in per cent. Broadly, the pIC50 is the IC50 on a negative log10 scale, so that one unit is a factor of ten. On to `Cn1cc(-c2ccc3c(c2)ncn3-c2cc(NS(=O)(=O)C3CC3)cc(-c3ccc(F)cc3F)c2)cn1` [Example 5, N-(2′,4′-difluoro-5-(5-(1-methyl-1H-pyrazol-4-yl)-1H-benzo[d]imidazol-1-yl)-biphenyl-3-yl)cyclopropanesulfonamide], for which, at FGFR1 kinase, the inhibition at 1 µM was 95% and the pIC50 was 7.92. Also, the inhibition at 1 µM against c-Met kinase was 7%.
Turning to `CC(=O)Nc1cc(-c2ccc(F)cc2F)cc(-n2cnc3cc(-c4cnco4)ccc32)c1` [Example 22, N-(2′,4′-difluoro-5-(5-(oxazol-5-yl)-1H-benzo[d]imidazol-1-yl)biphenyl-3-yl)-acetamide], at FGFR1 kinase, the inhibition at 1 µM is 99% and the pIC50 is 8.42. On c-Met kinase, the inhibition at 1 µM is 5%.
With `CC(C)S(=O)(=O)Nc1cc(-c2ccc(F)cc2F)cc(-n2cnc3cc(-c4cnco4)ccc32)c1` [Example 25, N-(2′,4′-difluoro-5-(5-(oxazol-5-yl)-1H-benzo[d]imidazol-1-yl)biphenyl-3-yl)-propane-2-sulfonamide], on FGFR1 kinase, the inhibition at 1 µM was 93% and the pIC50 was 7.47. Further, the inhibition at 1 µM against c-Met kinase amounted to 12%.
The corresponding values for `O=S(=O)(Nc1cc(-c2ccc(F)cc2F)cc(-n2cnc3cc(-c4cnco4)ccc32)c1)c1ccccc1` [Example 26, N-(2′,4′-difluoro-5-(5-(oxazol-5-yl)-1H-benzo[d]imidazol-1-yl)biphenyl-3-yl)-benzenesulfonamide] are 93%, 7.68 and 2%.
For `CCS(=O)(=O)Nc1cc(-c2ccc(F)cc2F)cc(-n2cnc3cc(-n4cccn4)ccc32)c1` [Example 30, N-(5-(5-(1H-pyrazol-1-yl)-1H-benzo[d]imidazol-1-yl)-2′,4′-difluorobiphenyl-3-yl)ethanesulfonamide], at FGFR1 kinase, the inhibition at 1 µM worked out at 94% and the pIC50 was 7.80. In addition, the inhibition at 1 µM on c-Met kinase amounted to 1%.
On to `O=C(Nc1cc(-c2ccc(F)cc2F)cc(-n2cnc3cc(-n4cccn4)ccc32)c1)NC1CCCC1` [Example 38, 1-(5-(5-(1H-pyrazol-1-yl)-1H-benzo[d]imidazol-1-yl)-2′,4′-difluorobiphenyl-3-yl)-3-cyclopentylurea], for which the inhibition at 1 µM on FGFR1 kinase was 88%; on c-Met kinase, 0%. The pIC50 at FGFR1 kinase was 7.48.
The corresponding values for `CC(C)(O)CCn1cc(-c2ccc3c(c2)ncn3-c2cc(NS(=O)(=O)C3CC3)cc(-c3ccc(F)cc3F)c2)nn1` [Example 47, N-(2′,4′-difluoro-5-(5-(1-(3-hydroxy-3-methylbutyl)-1H-1,2,3-triazol-4-yl)-1H-benzo[d]imidazol-1-yl)biphenyl-3-yl)cyclopropanesulfonamide] are 99%, 10% and 8.15.
The corresponding values for `CCS(=O)(=O)Nc1cc(-c2ccc(F)cc2F)cc(-n2cnc3cc(-c4cn(CCN5CCOCC5)nn4)ccc32)c1` [Example 49, N-(2′,4′-difluoro-5-(5-(1-(2-morpholinoethyl)-1H-1,2,3-triazol-4-yl)-1H-benzo[d]imidazol-1-yl)biphenyl-3-yl)ethanesulfonamide] are 98%, 9% and 8.47.
The corresponding values for `COc1ccc(-c2ccc3c(c2)ncn3-c2cc(NC(C)=O)cc(-c3ccc(F)cc3)c2)cn1` [Example 69, N-(4′-fluoro-5-(5-(6-methoxypyridin-3-yl)-1H-benzo[d]imidazol-1-yl)biphenyl-3-yl)acetamide] are 87%, -2% and 7.66.
`CC(=O)Nc1cc(-c2ccc(F)cc2)cc(-n2cnc3cc(-n4cccn4)ccc32)c1` [Example 70, N-(5-(5-(1H-pyrazol-1-yl)-1H-benzo[d]imidazol-1-yl)-4′-fluorobiphenyl-3-yl)-acetamide]: on FGFR1 kinase, the inhibition at 1 µM was determined as 99% and the pIC50 is 8.00. For the same molecule, the inhibition at 1 µM against c-Met kinase stood at 0%.
The corresponding values for `CCS(=O)(=O)Nc1cc(-c2ccc(F)cc2)cc(-n2cnc3cc(-n4cccn4)ccc32)c1` [Example 72, N-(5-(5-(1H-pyrazol-1-yl)-1H-benzo[d]imidazol-1-yl)-4′-fluorobiphenyl-3-yl)-ethanesulfonamide] are 98%, 7.49 and 11%.
The corresponding values for `CC(=O)Nc1cc(-c2ccc(C)o2)cc(-n2cnc3cc(-c4cnn(CCN(C)C)c4)ccc32)c1` [Example 82, N-(3-(5-(1-(2-(dimethylamino)ethyl)-1H-pyrazol-4-yl)-1H-benzo[d]imidazol-1-yl)-5-(5-methylfuran-2-yl)phenyl)acetamide] are 96%, 7.80 and 15%.
The corresponding values for `CC(=O)Nc1cc(-c2ccc(C)o2)cc(-n2cnc3cc(-c4cnn(CCN5CCOCC5)c4)ccc32)c1` [Example 83, N-(3-(5-methylfuran-2-yl)-5-(5-(1-(2-morpholinoethyl)-1H-pyrazol-4-yl)-1H-benzo[d]imidazol-1-yl)phenyl)acetamide] are 95%, 7.43 and 5%.
As to `CC(=O)Nc1cc(-n2cccc2)cc(-n2cnc3cc(-c4cn(CCC(C)(C)O)nn4)ccc32)c1` [Example 112, N-(3-(5-(1-(3-hydroxy-3-methylbutyl)-1H-1,2,3-triazol-4-yl)-1H-benzo[d]-imidazol-1-yl)-5-(1H-pyrrol-1-yl)phenyl)acetamide], the inhibition at 1 µM against FGFR1 kinase was determined as 97%; against c-Met kinase, 0%. For the same molecule, the pIC50 on FGFR1 kinase is 8.74.
As for `Cn1cc(-c2ccc3c(c2)ncn3-c2cc(NS(=O)(=O)N3CCCCC3)cc(-n3cccn3)c2)cn1` [Example 119, N-(3-(5-(1-methyl-1H-pyrazol-4-yl)-1H-benzo[d]imidazol-1-yl)-5-(1H-pyrazol-1-yl)phenyl)piperidine-1-sulfonamide], on FGFR1 kinase, the inhibition at 1 µM amounted to 94% and the pIC50 was 7.08. Also, the inhibition at 1 µM at c-Met kinase stood at 23%.
The corresponding values for `O=C(NCc1ccco1)Nc1cc(-n2cccn2)cc(-n2cnc3cc(-n4cccn4)ccc32)c1` [Example 123, 1-(3-(5-(1H-pyrazol-1-yl)-1H-benzo[d]imidazol-1-yl)-5-(1H-pyrazol-1-yl)-phenyl)-3-(furan-2-ylmethyl)urea] are 94%, 7.21 and 0%.
The corresponding values for `CC(=O)Nc1cc(-n2cccn2)cc(-n2cnc3cc(-c4cnn(CC5CC5)c4)ccc32)c1` [Example 127, N-(3-(5-(1-(cyclopropylmethyl)-1H-pyrazol-4-yl)-1H-benzo[d]imidazol-1-yl)-5-(1H-pyrazol-1-yl)phenyl)acetamide] are 91%, 7.21 and 10%.
As to `CC(=O)Nc1cc(-c2ccc(F)cc2F)cc(-n2cnc3cc(-c4cnn(C)c4)cnc32)c1` [Example 131, N-(2′,4′-difluoro-5-(6-(1-methyl-1H-pyrazol-4-yl)-3H-imidazo[4,5-b]pyridin-3-yl)biphenyl-3-yl)acetamide], on FGFR1 kinase, the inhibition at 1 µM came to 99% and the pIC50 is 8.89. Besides, at c-Met kinase, the inhibition at 1 µM came to 15%.
The corresponding values for `CCS(=O)(=O)Nc1cc(-c2ccc(F)cc2F)cc(-n2cnc3cc(-c4cnn(C)c4)cnc32)c1` [Example 133, N-(2′,4′-difluoro-5-(6-(1-methyl-1H-pyrazol-4-yl)-3H-imidazo[4,5-b]pyridin-3-yl)biphenyl-3-yl)ethanesulfonamide] are 97%, 7.85 and 0%.
The corresponding values for `Cn1cc(-c2cnc3c(c2)ncn3-c2cc(NS(=O)(=O)c3ccccc3)cc(-c3ccc(F)cc3F)c2)cn1` [Example 134, N-(2′,4′-difluoro-5-(6-(1-methyl-1H-pyrazol-4-yl)-3H-imidazo[4,5-b]pyridin-3-yl)biphenyl-3-yl)benzenesulfonamide] are 92%, 7.01 and 0%.

The record behind these values is US9447091B2, “Protein kinase inhibitors” (Orion Corporation, priority 2011, dated 2016).
